# Biological target: EGFP-hSERT (UniProt P31645+P42212, F64L/H231L/S65T)
# Assay type: cell-based, human
smiles,measurement,setting,value
CCN(CC)c1ccc2c(-c3ccc(S(=O)(=O)NCCCCCC(=O)NCCC(=O)Nc4cccc(-c5ccc6c(c5)COC6(CCCN(C)C)c5ccc(F)cc5)c4)cc3S(=O)(=O)[O-])c3ccc(=[N+](CC)CC)cc-3oc2c1 (centres unmarked) [compound 8],labeling of EGFP-SERT in live cells in the presence of paroxetine,"20 nM 8, 37°C, preincubation with 1 μM paroxetine 30 min",no fluorescence was observed at the cell surface in the red channel
same,labeling of EGFP-SERT in live cells,"20 nM 8, 60 min at 37°C, HEK293 EGFP-hSERT, without paroxetine",labels SERT with high specificity
